Test results taken from ChEMBL document CHEMBL3351963 (Bioorg Med Chem Lett, 2014).
In brackets after ≈: the same amount, converted by molar mass.

Columns and labels:
[1] = Retention time of the compound by HPLC method; type: physicochemical
[2] = Prodrug conversion in rat liver S9 fraction assessed as half life for metformin formation at 100 uM in presence of 1 mM reduced glutathione by HPLC method; type: ADME, subcellular; details: gsh
[3] = Prodrug conversion in human liver S9 fraction assessed as half life for metformin formation at 100 uM in presence of 1 mM reduced glutathione by HPLC method; type: ADME, subcellular; details: gsh
[4] = Stability in pH 1.0 HCl buffer solution measured over 3 weeks by HPLC method; type: physicochemical; details: pH 1, 504 h
[5] = molecular target: Glutathione S-transferase P (Homo sapiens, UniProt P09211); experiment: Prodrug conversion assessed as half life for human recombinant GST-P1-mediated metformin formation at 100 uM in presence of 1 mM reduced glutathione by HPLC method; type: ADME; details: gsh
[6] = test system: Intestine; experiment: Stability in rat small intestine homogenates by HPLC method; type: ADME, tissue-based; details: tissue homogenate
[7] = Stability in rat liver S9 fraction at 100 uM after 24 hrs in absence of 1 mM reduced glutathione at 37 degC by HPLC method; type: ADME; details: s9, 24 h
[8] = Stability in presence of 1 mM reduced glutathione at 100 uM after 24 hrs at 37 degC by HPLC method; type: physicochemical
[9] = Aqueous solubility in pure water incubated for 1 hr by HPLC based shake flask method; type: physicochemical
[10] = Prodrug conversion in rat liver S9 fraction assessed as […] GST-mediated metformin formation at 10 to 200 uM in presence of 1 mM reduced glutathione by Michaelis-Menten method; type: ADME, subcellular; details: s9, 200 µM
[11] = Stability in pH 7.4 buffer solution; type: physicochemical
[12] = test system: Liver microsome; experiment: Prodrug conversion in rat liver microsomes assessed as half life for metformin formation at 100 uM in presence of a NADPH-regenerating system by HPLC method; type: ADME
[13] = test system: Liver cytosol; experiment: Prodrug conversion in rat liver cytosol assessed as half life for metformin formation at 100 uM in presence of a NADPH-regenerating system by HPLC method; type: ADME, tissue-based
[14] = molecular target: T1, Glutathione S-transferase Mu 2 (Homo sapiens, UniProt P28161); experiment: Prodrug conversion assessed as half life for human recombinant GST-M2-mediated metformin formation at 100 uM in presence of 1 mM reduced glutathione by HPLC method; type: ADME; details: gsh
T1 sequence (P28161 whole entry): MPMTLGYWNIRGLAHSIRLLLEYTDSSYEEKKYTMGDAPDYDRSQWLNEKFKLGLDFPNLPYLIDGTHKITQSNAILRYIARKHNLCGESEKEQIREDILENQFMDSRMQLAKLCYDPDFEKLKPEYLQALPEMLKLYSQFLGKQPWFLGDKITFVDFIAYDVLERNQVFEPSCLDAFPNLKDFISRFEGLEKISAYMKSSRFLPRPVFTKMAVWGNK

[15] = Distribution coefficient, logD of the compound in mixture of 1-octanol and 50 mM phosphate buffer pH 7.4 by HPLC method; type: physicochemical; details: 1-octanol/50 mM phosphate buffer
[16] = molecular target: T2, Glutathione S-transferase A1 (Homo sapiens, UniProt P08263); experiment: Prodrug conversion assessed as half life for human recombinant GST-A1-mediated metformin formation at 100 uM in presence of 1 mM reduced glutathione by HPLC method; type: ADME; details: gsh
T2 sequence (P08263 whole entry): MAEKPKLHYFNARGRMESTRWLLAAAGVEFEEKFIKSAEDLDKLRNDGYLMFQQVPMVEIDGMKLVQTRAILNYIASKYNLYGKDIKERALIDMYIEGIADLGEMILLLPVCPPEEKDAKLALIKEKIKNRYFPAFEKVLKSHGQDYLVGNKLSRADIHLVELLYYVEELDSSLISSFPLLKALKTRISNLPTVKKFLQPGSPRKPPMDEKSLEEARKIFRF

[17] = Stability in rat liver S9 fraction at 100 uM after 24 hrs in presence of 1 mM reduced glutathione at 37 degC by HPLC method; type: ADME, subcellular; details: s9, 24 h

Sequence of Glutathione S-transferase P (P09211 whole entry): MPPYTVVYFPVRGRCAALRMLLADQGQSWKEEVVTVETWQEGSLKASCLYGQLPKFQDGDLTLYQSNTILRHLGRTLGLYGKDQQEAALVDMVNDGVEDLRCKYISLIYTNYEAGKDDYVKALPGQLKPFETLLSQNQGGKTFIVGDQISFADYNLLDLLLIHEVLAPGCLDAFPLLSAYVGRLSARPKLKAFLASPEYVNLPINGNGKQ

## CN(C)C(=N)N=C(N)N [METFORMIN]
[1]
  Retention_time: 15 min

## CN(C)C(=N)/N=C(\N)NS(=O)(=O)c1ccc(C(F)(F)F)cc1[N+](=O)[O-]
[2]
  t1/2: 226.01 min
[3]
  t1/2: 362.29 min
[4]
  Stability: Stable
[5]
  t1/2: 412.05 min
[6]
  Stability: Stable
[7]
  Stability: Stable
[8]
  Stability: Stable
[9]
  solubility thermodynamic at 1 h: 360 µg/mL (≈ 942 µM)
[10]
  Km: 106 µM
  Vmax: 8.86 nmol/mg/min
[11]
  Stability: Stable
[12]
  t1/2: 568.51 min
[13]
  t1/2: 279.85 min
[14]
  t1/2: 366.27 min
[1]
  Retention_time: 3 min
[15]
  logD: 0.86
[16]
  t1/2: 380.2 min

## CN(C)C(=N)/N=C(\N)NS(=O)(=O)c1ccccc1[N+](=O)[O-]
[11]
  Stability: Stable
[17]
  Stability: Stable
[1]
  Retention_time: 3 min

## CCC[C@@]1(CCc2ccccc2)CC(O)=C([C@H](CC)c2cccc(NS(=O)(=O)c3ccc(C#N)cn3)c2)C(=O)O1
[10]
  Km: 143 µM
  Vmax: 13.9 nmol/mg/min

## CN(C)C(=N)/N=C(\N)NS(=O)(=O)c1ccc([N+](=O)[O-])cc1
[11]
  Stability: Stable
[17]
  Stability: Stable
[1]
  Retention_time: 3 min
